Experimental data reported in PMC5564600 (Oncotarget, 2017).

Experiments:
Test in all cases: biochemical
Assay type in all cases: binding
[1] = biological target: T1, panel of 442 kinases (Homo sapiens, UniProt P29317); settings: EPHA2; for remaining activity at 1 µM: read-out: % of control at 1 µM
T1 construct: purchased Ambit Biosciences (scanMAXX KINOMEscan)

[2] = biological target: T2, panel of 442 kinases (Homo sapiens, UniProt P29323); settings: EPHB2; for remaining activity at 1 µM: read-out: % of control at 1 µM
T2 construct: purchased Ambit Biosciences (scanMAXX KINOMEscan)
T2 sequence (P29323 19-1055): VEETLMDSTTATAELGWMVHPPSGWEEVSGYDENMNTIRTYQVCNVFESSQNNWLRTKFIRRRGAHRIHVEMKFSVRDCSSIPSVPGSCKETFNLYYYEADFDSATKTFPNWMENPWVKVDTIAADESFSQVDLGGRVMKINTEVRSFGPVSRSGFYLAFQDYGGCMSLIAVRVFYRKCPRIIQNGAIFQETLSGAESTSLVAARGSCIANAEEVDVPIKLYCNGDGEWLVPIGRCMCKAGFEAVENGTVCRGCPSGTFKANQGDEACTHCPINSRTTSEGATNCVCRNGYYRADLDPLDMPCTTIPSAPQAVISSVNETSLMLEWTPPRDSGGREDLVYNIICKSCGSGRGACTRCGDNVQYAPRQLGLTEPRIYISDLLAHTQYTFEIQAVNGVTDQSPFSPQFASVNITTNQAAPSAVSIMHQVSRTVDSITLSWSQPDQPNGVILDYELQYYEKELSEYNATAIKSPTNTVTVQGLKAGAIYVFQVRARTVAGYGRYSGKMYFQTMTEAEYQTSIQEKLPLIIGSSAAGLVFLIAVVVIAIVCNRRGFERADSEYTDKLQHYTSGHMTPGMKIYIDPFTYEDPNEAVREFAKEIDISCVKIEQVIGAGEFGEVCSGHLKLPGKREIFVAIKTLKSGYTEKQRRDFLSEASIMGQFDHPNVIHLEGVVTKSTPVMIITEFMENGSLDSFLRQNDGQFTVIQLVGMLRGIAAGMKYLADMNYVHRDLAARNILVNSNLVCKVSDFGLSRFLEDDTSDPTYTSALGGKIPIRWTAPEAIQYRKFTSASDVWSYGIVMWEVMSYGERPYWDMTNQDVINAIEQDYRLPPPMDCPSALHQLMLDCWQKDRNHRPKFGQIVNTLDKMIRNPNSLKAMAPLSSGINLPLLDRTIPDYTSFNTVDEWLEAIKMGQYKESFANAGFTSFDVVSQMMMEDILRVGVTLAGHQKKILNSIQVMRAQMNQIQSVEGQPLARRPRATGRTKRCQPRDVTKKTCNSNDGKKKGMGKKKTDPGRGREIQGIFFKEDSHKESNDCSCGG

[3] = biological target: T3, panel of 442 kinases (Homo sapiens, UniProt P36896); settings: ACVR1B; for remaining activity at 1 µM: read-out: % of control at 1 µM
T3 construct: purchased Ambit Biosciences (scanMAXX KINOMEscan)
T3 sequence (P36896 24-505): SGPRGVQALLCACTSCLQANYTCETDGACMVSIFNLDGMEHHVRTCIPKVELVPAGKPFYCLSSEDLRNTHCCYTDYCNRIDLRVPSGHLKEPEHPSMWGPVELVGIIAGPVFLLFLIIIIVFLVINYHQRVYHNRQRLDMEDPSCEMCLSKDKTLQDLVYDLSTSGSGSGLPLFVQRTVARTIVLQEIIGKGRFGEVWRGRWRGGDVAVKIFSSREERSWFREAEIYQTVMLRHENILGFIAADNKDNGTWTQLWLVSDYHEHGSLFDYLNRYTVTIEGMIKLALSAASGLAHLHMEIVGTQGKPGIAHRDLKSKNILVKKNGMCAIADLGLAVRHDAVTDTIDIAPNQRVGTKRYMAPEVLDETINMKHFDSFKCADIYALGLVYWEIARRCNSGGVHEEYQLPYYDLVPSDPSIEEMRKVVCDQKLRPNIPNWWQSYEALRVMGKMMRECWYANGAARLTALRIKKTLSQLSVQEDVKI

[4] = biological target: T4, panel of 442 kinases (Homo sapiens, UniProt P50750); settings: CDK9; for remaining activity at 1 µM: read-out: % of control at 1 µM
T4 construct: purchased Ambit Biosciences (scanMAXX KINOMEscan)

[5] = biological target: T5, panel of 442 kinases (Homo sapiens, UniProt P51617); settings: kinase IRAK1; for remaining activity at 1 µM: read-out: % of control at 1 µM
T5 construct: purchased Ambit Biosciences (scanMAXX KINOMEscan)

[6] = biological target: T6, panel of 442 kinases (Homo sapiens, UniProt P51817); settings: kinase PRKX; for remaining activity at 1 µM: read-out: PRKX (% of control at 1 µM)
T6 construct: purchased Ambit Biosciences (scanMAXX KINOMEscan)
T6 sequence (P51817 1-358): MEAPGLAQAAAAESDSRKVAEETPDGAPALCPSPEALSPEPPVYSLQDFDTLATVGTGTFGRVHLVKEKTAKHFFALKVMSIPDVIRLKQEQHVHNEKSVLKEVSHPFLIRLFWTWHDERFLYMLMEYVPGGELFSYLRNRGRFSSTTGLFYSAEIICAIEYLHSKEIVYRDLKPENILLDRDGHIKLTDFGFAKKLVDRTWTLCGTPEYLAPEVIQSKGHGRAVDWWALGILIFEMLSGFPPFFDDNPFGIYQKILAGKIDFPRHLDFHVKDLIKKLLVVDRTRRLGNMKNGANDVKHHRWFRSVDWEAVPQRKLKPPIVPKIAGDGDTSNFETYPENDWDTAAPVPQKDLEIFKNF

[7] = biological target: T7, panel of 442 kinases (Homo sapiens, UniProt Q9UEE5); settings: DRAK1; for remaining activity at 1 µM: read-out: % of control at 1 µM
T7 construct: purchased Ambit Biosciences (scanMAXX KINOMEscan)
T7 sequence (Q9UEE5 1-414): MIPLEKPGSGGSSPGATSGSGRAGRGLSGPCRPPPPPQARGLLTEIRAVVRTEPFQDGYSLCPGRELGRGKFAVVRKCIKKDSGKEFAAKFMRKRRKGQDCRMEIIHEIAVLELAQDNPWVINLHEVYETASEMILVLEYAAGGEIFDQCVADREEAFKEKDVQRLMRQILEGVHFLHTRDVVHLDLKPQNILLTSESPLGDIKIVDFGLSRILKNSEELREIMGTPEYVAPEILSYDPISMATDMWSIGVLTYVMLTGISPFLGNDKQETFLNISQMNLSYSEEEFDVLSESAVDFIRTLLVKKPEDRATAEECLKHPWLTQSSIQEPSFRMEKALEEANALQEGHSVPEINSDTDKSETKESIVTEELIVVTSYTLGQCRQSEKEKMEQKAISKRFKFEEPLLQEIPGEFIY

[8] = 10 µM, read-out: % of control at 10 µM

T4 sequence (P50750 whole entry): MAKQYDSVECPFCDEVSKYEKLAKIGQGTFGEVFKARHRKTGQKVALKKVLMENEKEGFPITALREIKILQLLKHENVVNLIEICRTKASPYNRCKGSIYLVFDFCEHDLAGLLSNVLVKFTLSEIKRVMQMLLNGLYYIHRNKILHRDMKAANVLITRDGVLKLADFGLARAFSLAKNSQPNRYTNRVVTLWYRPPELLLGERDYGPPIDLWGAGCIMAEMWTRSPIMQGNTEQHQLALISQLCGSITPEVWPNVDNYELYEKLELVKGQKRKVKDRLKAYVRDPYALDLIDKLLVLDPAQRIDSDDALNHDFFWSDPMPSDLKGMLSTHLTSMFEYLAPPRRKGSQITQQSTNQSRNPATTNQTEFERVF
T1 sequence (P29317 24-976): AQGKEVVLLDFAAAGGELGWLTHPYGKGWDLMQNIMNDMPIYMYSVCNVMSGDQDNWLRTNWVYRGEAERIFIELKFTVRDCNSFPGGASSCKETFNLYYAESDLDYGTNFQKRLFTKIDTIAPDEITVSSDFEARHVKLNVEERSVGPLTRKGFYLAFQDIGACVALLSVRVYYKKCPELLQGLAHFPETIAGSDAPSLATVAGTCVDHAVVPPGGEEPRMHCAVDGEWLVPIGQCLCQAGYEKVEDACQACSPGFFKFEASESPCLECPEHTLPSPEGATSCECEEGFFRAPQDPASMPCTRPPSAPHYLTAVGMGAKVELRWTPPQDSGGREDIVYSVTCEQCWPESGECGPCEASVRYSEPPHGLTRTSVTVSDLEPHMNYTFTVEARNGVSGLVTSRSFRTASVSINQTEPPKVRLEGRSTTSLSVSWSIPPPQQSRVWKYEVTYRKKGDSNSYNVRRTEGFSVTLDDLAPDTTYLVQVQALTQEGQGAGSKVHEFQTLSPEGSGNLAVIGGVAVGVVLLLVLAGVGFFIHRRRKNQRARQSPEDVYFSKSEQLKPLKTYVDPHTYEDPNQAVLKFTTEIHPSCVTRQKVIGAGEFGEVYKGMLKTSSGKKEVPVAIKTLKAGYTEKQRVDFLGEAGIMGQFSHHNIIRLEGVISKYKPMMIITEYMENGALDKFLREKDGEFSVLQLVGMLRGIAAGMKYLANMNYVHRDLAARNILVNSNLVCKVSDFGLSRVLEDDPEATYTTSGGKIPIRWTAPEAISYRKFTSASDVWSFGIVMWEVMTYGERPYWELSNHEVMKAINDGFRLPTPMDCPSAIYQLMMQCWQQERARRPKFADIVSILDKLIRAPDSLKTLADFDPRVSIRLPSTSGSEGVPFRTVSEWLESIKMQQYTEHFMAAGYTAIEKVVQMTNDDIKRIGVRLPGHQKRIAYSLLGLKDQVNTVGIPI
T5 sequence (P51617 whole entry): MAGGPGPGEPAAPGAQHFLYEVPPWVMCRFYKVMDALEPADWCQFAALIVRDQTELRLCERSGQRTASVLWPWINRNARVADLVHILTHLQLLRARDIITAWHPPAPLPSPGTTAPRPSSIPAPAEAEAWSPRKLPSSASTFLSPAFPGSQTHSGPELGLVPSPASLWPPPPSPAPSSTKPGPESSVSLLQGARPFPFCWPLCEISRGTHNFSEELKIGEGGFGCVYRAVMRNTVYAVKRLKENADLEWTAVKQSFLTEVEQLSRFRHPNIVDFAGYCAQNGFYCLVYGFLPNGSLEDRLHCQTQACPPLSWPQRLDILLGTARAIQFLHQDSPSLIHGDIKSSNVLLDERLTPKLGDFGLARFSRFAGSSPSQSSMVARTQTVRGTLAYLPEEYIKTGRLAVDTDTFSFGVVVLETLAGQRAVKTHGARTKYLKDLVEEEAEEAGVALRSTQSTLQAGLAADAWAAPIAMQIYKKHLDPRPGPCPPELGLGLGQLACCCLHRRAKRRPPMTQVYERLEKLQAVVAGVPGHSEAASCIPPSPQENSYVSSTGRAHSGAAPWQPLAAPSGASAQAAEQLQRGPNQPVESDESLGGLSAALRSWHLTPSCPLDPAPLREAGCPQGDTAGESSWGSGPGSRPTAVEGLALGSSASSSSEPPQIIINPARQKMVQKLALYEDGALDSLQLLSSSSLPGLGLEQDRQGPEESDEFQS

SMILES	remaining activity at 1 µM [1] [%]	remaining activity at 10 µM [1, 8] [%]	remaining activity at 1 µM [2] [%]	remaining activity at 10 µM [2, 8] [%]	remaining activity at 1 µM [3] [%]	remaining activity at 10 µM [3, 8] [%]	remaining activity at 1 µM [4] [%]	remaining activity at 10 µM [4, 8] [%]	remaining activity at 1 µM [5] [%]	remaining activity at 10 µM [5, 8] [%]	remaining activity at 1 µM [6] [%]	remaining activity at 10 µM ([6]; 10 µM, read-out: PRKX (% of control at 10 µM)) [%]	remaining activity at 1 µM [7] [%]	remaining activity at 10 µM [7, 8] [%]
Nc1cc(C(F)(F)F)c(-c2cc(N3CCOCC3)nc(N3CCOCC3)n2)cn1 [Buparlisib]	100	100	82	100	87	83	85	85	82	71	100	100	100	100
Cn1c(=O)n(-c2ccc(C(C)(C)C#N)cc2)c2c3cc(-c4cnc5ccccc5c4)ccc3ncc21 [Dactolisib, 2-methyl-2-[4-(3-methyl-2-oxo-8-quinolin-3-yl-2,3-dihydroimidazo[4,5-c]quinolin-1-yl)-phenyl] propionitrile]	96	–	100	–	100	–	91	–	54	–	77	–	91	–
COc1ncc(-c2ccc3nccc(-c4ccnnc4)c3c2)cc1NS(=O)(=O)c1ccc(F)cc1F [Omipalisib]	100	–	100	–	100	–	100	–	100	–	100	–	100	–
FC(F)c1nc2ccccc2n1-c1nc(N2CCOCC2)nc(N2CCOCC2)n1 [ZSTK474, 2-(difluoromethyl)-1-[4,6-di(4-morpholinyl)-1,3,5-triazin-2-yl]-1H-benzimidazole]	100	–	94	–	60	–	100	–	92	–	100	–	90	–
